Consider two compounds from paper PMC10655120, “Highly efficient synergistic activity of an α-L-arabinofuranosidase for degradation of arabinoxylan in barley/wheat” (Frontiers in Microbiology, 2023).

The target in the test is T1, TtAbf62 (Thermothelomyces thermophilus, UniProt G2QJQ6).
T1 construct: gene MYCTH_55982; GH62; 321 residues with signal peptide MRPTRPGIVLLATATSVAG (1-19), replaced by alpha-factor signal (strain alpha-ABF); codon-optimized, secreted by Pichia pastoris X-33 (pPICZalphaA); N-glycosylated, 45-60 kDa (35 kDa deglycosylated); no purification described
T1 sequence (G2QJQ6 20-321): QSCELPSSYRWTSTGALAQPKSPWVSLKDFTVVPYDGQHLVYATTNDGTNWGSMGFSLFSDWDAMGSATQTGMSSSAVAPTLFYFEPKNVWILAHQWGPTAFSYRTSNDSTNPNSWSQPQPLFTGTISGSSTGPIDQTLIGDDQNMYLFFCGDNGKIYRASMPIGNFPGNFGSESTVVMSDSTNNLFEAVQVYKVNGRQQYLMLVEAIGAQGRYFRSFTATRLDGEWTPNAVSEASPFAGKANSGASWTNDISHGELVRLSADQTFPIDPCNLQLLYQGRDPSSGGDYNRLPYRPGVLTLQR
The experiment in a line: HPLC of released arabinose. The settings on record: 5 mg/mL substrate, 7.7 U/mL secreted enzyme, 50 mM sodium acetate pH 5.0, 60 °C, 1 h. In kind it is biochemical.

For `OC[C@@H]1O[C@@H](O[C@H]2[C@H](O[C@@H]3CO[C@@H](O[C@@H]4COC(O)[C@H](O)[C@H]4O)[C@H](O)[C@H]3O)OC[C@@H](O)[C@@H]2O)[C@H](O)[C@H]1O` (stereo partly drawn) [A^2XX, 2^3-α-L-arabinofuranosyl-xylotriose], the “HPLC of released arabinose” value was “able to release arabinose from single-arabinofuranosyl arabinoxylo-oligosaccharides substrates (A^3X, A^2XX, and XA^3XX)”.
The value for `OC[C@@H]1O[C@@H](O[C@@H]2[C@@H](O)[C@H](O[C@@H]3COC(O)[C@H](O)[C@H]3O)OC[C@H]2O)[C@H](O)[C@H]1O` (stereo partly drawn) [A^3X, 3^2-α-L-arabinofuranosyl-xylobiose] was “able to release arabinose from single-arabinofuranosyl arabinoxylo-oligosaccharides substrates (A^3X, A^2XX, and XA^3XX)”.
